For 2 compounds, mutagenic call results are on record in PubChem BioAssay AID1259407 (Chemical Carcinogenesis Research Information System (CCRIS), 2018).

Each structure is given as a SMILES string. The source made the active and inactive calls. How the calls were made is not given here.

In this data set the test system is CCRIS mutagenicity, Ames/micronucleus/aberration tests. Kind of data set: CCRIS mutagenicity studies.

Turning to `CCCCC(CC)COC(=O)CCCCCCCCC(=O)OCC(CC)CCCC` (stereo not given), the mutagenic call is “inactive; negative” (Test System: AMES SALMONELLA TYPHIMURIUM, Strain/Indicator: TA98, Metabolic Activation: HAMSTER, LIVER, S-9, AROCLOR 1254 (10%), Method: PREINCUBATION); “inactive; negative” (Test System: AMES SALMONELLA TYPHIMURIUM, Strain/Indicator: TA98, Metabolic Activation: NONE, Method: PREINCUBATION); “inactive; negative” (Test System: AMES SALMONELLA TYPHIMURIUM, Strain/Indicator: TA98, Metabolic Activation: RAT, LIVER, S-9, AROCLOR 1254 (10%), Method: PREINCUBATION); “inactive; negative” (Test System: AMES SALMONELLA TYPHIMURIUM, Strain/Indicator: TA100, Metabolic Activation: HAMSTER, LIVER, S-9, AROCLOR 1254 (10%), Method: PREINCUBATION); “inactive; negative” (Test System: AMES SALMONELLA TYPHIMURIUM, Strain/Indicator: TA100, Metabolic Activation: NONE, Method: PREINCUBATION); “inactive; negative” (Test System: AMES SALMONELLA TYPHIMURIUM, Strain/Indicator: TA100, Metabolic Activation: RAT, LIVER, S-9, AROCLOR 1254 (10%), Method: PREINCUBATION). Also, the mutagenic call runs as follows: (Test System: AMES SALMONELLA TYPHIMURIUM, Strain/Indicator: TA1535, Metabolic Activation: HAMSTER, LIVER, S-9, AROCLOR 1254 (10%), Method: PREINCUBATION) “inactive; negative”; (Test System: AMES SALMONELLA TYPHIMURIUM, Strain/Indicator: TA1535, Metabolic Activation: NONE, Method: PREINCUBATION) “inactive; negative”; (Test System: AMES SALMONELLA TYPHIMURIUM, Strain/Indicator: TA1535, Metabolic Activation: RAT, LIVER, S-9, AROCLOR 1254 (10%), Method: PREINCUBATION) “inactive; negative”; (Test System: AMES SALMONELLA TYPHIMURIUM, Strain/Indicator: TA1537, Metabolic Activation: HAMSTER, LIVER, S-9, AROCLOR 1254 (10%), Method: PREINCUBATION) “inactive; negative”; (Test System: AMES SALMONELLA TYPHIMURIUM, Strain/Indicator: TA1537, Metabolic Activation: NONE, Method: PREINCUBATION) “inactive; negative”; (Test System: AMES SALMONELLA TYPHIMURIUM, Strain/Indicator: TA1537, Metabolic Activation: RAT, LIVER, S-9, AROCLOR 1254 (10%), Method: PREINCUBATION) “inactive; negative”. The mutagenic call is, setting by setting: (Test System: Ames Salmonella typhimurium, Strain/Indicator: TA98, Metabolic Activation: None, Method: Preincubation) “inactive; negative”; (Test System: Ames Salmonella typhimurium, Strain/Indicator: TA98, Metabolic Activation: Rat, Liver, S9, Phenobarbital and 5,6-benzoflavone, Method: Preincubation) “inactive; negative”; (Test System: Ames Salmonella typhimurium, Strain/Indicator: TA100, Metabolic Activation: None, Method: Preincubation) “inactive; negative”; (Test System: Ames Salmonella typhimurium, Strain/Indicator: TA100, Metabolic Activation: Rat, Liver, S9, Phenobarbital and 5,6-benzoflavone, Method: Preincubation) “inactive; negative”; (Test System: Ames Salmonella typhimurium, Strain/Indicator: TA1535, Metabolic Activation: None, Method: Preincubation) “inactive; negative”; (Test System: Ames Salmonella typhimurium, Strain/Indicator: TA1535, Metabolic Activation: Rat, Liver, S9, Phenobarbital and 5,6-benzoflavone, Method: Preincubation) “inactive; negative”. The mutagenic call by setting is: (Test System: Ames Salmonella typhimurium, Strain/Indicator: TA1537, Metabolic Activation: None, Method: Preincubation) “inactive; negative”; (Test System: Ames Salmonella typhimurium, Strain/Indicator: TA1537, Metabolic Activation: Rat, Liver, S9, Phenobarbital and 5,6-benzoflavone, Method: Preincubation) “inactive; negative”; (Test System: E. coli, Strain/Indicator: WP2uvrA/pKM101, Metabolic Activation: None, Method: Preincubation) “inactive; negative”; (Test System: E. coli, Strain/Indicator: WP2uvrA/pKM101, Metabolic Activation: Rat, Liver, S9, Phenobarbital and 5,6-benzoflavone, Method: Preincubation) “inactive; negative”.

Regarding `O.O=P([O-])([O-])[O-].[Fe+3]`, the mutagenic call was “inactive; negative. reevaluation of results: negative” (Test System: MOUSE LYMPHOMA, Strain/Indicator: L5178Y (TK+/TK-), Metabolic Activation: NONE, Method: SUSPENSION/PLATE); “active; positive” (Test System: MOUSE LYMPHOMA, Strain/Indicator: L5178Y (TK+/TK-), Metabolic Activation: RAT, LIVER, S-9, AROCLOR 1254, Method: SUSPENSION/PLATE); “active; equivocal (previous evaluation positive)” (Test System: Mouse lymphoma, Strain/Indicator: L5178Y (tk+/tk-), Metabolic Activation: Rat, Liver, S-9, Aroclor 1254, Method: Suspension/plate).
